Test results published in patent US5688767A, “Treatment of endotoxin-associated disorders with cationic peptides” (priority 1996, dated 1997).

Tests used:
[1] = test system: LPS-induced TNF in RAW 264.7 cells; assay: Preincubation of RAW cells with peptide, wash, and supernatant transfer before LPS; format: cell-based, murine; details: for depression of TNF induction by aspirated medium containing CEMA: fresh RAW cells
Procedure: In order to determine how rapidly CEMA reduced LPS-induced TNF production, E. coli 0111:B4 or Bort LPS was added at time 0 to RAW macrophages. CEMA or Polymyxin B was added at time 0, 30 and 60 minutes. Levels of TNF were measured after 6 hours. […] To confirm that CEMA was acting on LPS rather than directly upon macrophage cell lines, 20 μg of CEMA was added to RAW cells and incubated for 60 minutes prior to aspiration of the medium and washing the cells 3 times with HBSS (Hanks Buffered Salt Solution).
To ensure that the cationic peptides were interacting with the LPS rather than the cell lines, […], and after incubation at 37° C. in 5% CO2 for 60 minutes, the supernatant was removed and added to a second well of untreated RAW 264.7 cells. Fresh medium was added to the peptide-treated RAW cells and 100 ng/ml of LPS was then added to both the peptide-treated cells and those reconstituted with supernatant, and these wells assayed for TNF production after 6 hours incubation at 37° C. in 5% CO2.
Both CEME and CEMA were reproducibly able to inhibit the induction, by E. coli 0111:B4 LPS, of TNF secretion by RAW 264.7 cells (Table 10). […] Virtually the same results were obtained with E. coli Bort LPS and in preliminary experiments with P. aeruginosa strain H 103 LPS. […] In contrast the supernatants from these preincubations (which presumably contained the peptides) when added to fresh RAW 264.7 cells, were able to suppress the ability of these cells to induce TNF in response to LPS stimulation, producing only 4451 units per ml;.

[2] = test system: RAW 264.7 cells; assay: RAW cell viability by Trypan blue exclusion; format: cell-based, murine; details: up to 50 μg
[3] = test system: LPS-induced circulating TNF; assay: Circulating TNF response to LPS in galactosamine-sensitized mice; format: in vivo
Procedure: With a challenge dose of 10 μg or E. coli 0111:B4 LPS, 100% of control mice (i.e., no cationic peptide) were killed. […] Consistent with its improved ability to bind LPS, CEMA was more protective resulting in 60%, 75%, and 78% survival when given to mice at doses of 50 μg, 100 μg, and 200 μg respectively. […] Thirty minutes later, the mice were sacrificed and the blood was taken and centrifuged to separate the serum which was used in the cell cytotoxic L929 assay. […] Such suppression of TNF levels in the animals injected with Dgal, CEMA, and LPS was maintained for up to 2 hours.
TNF was measured in cell culture supernatants and mouse serum on the basis of cytoxicity for L929 fibroblast cell. […] TNF activity was expressed in units as the reciprocal of the dilution of TNF that caused 50% cytotoxicity of L929 cells, as computed using the ELISA+program (Meddata, Inc., New York, N.Y.). In our hands one unit of TNF corresponded to 62.5 pg/ml of recombinant murine TNF (Genzyme Corp.).
Mice are naturally resistant to LPS. […] Endotoxic shock was induced by intraperitoneal injection of 10 or 20 μg of E. coli 0111:B4 LPS in phosphate-buffered saline (PBS), pH 7.2 into galactosamine-sensitized 8-10 week old female CD-1 mice (Galanos, C., supra; Freudenberg, M. A., Inf. Immun., 51:891, 1986). In experiments involving peptides, 50-200 μg in 100 μl sterile water injected at separate intraperitoneal sites immediately before or after LPS injection. In survival experiments, survival was monitored at 24 to 48 hours post injection. In experiments measuring TNF, blood was withdrawn by cardiac puncture at timed intervals up to 8 hours after the injections and allowed to clot prior to measurement of TNF in the serum.
To examine if the peptides were exerting their effects in animals by suppressing TNF induction, TNF was followed in response to injection of 10 μg of E. Coli 0111:B4 into galactosamine treated CD-1 mice. […] At the time points shown, blood was taken and TNF measured in the L929 cytotoxicity assay. […]

[4] = MIC of common antibiotics in the presence of sub-MIC levels of cationic peptides; format: cell-based
Excerpt: The ability of the cationic peptides to work synergistically was examined by determining the MIC values for some commonly used antibiotics in the presence of sub-MIC levels of cationic peptides (Table 4). […] This may be due to the high membrane permeabilizing activity of CEMA (see below). However, the peptides did lower the MIC of polymyxin B, possibly due to the fact that they are all taken up by the same pathway and are therefore aiding each other's uptake. Of interest is the influence that melittin has on the MIC of polymyxin B, given the weak membrane permeabilizing activity of melittin.

Row | Compound | TNF induction in washed RAW cells ([1]; 20 μg CEMA preincubated 60 minutes, washed 3 times, then 10 ng or 100 ng of LPS) | TNF induction in peptide-preincubated RAW 264.7 cells ([1]; CEMA 20 μg/ml preincubated 60 minutes, supernatant removed, fresh medium and 100 ng/ml E. coli 0111:B4 LPS) [Units per ml] | depression of TNF induction by aspirated medium containing CEMA ([1]; 10 ng E. coli Bort LPS) [%] | depression of TNF induction by aspirated medium containing CEMA ([1]; 100 ng E. coli Bort LPS) [%] | TNF induction in fresh RAW 264.7 cells given preincubation supernatants ([1]; supernatants from CEMA 20 μg/ml preincubations, LPS stimulation) [units per ml] | RAW cell viability [2] | reduction of serum TNF levels ([3]; 200 μg CEMA injected immediately after 10 μg E. coli 0111:B4 LPS) [%] | blood levels of TNF ([3]; 200 μg CEMA with 10 μg LPS and Dgal, at 30 minutes) | duration of suppression of TNF levels ([3]; animals injected with Dgal, CEMA, and LPS) | MIC in the presence of ([4]; CEMA 0.7 μg/ml) [μg/m1] | MIC in the presence of ([4]; CEMA 1.4 μg/ml) [μg/m1] | MIC in the presence of ([4]; CEME 0.6 μg/ml) [μg/m1] | MIC in the presence of ([4]; CEME 1.2 μg/ml) [μg/m1] | MIC in the presence of ([4]; Melittin 2 μg/ml) [μg/m1] | MIC in the presence of ([4]; Melittin 4 μg/ml) [μg/m1] | MIC in the presence of ([4]; No peptide) [μg/m1]
1 | CC[C@H](C)[C@H](NC(=O)CNC(=O)[C@@H](NC(=O)[C@H](CCCCN)NC(=O)[C@H](CCCCN)NC(=O)[C@H](Cc1ccccc1)NC(=O)[C@H](CC(C)C)NC(=O)[C@H](CCCCN)NC(=O)[C@H](Cc1c[nH]c2ccccc12)NC(=O)[C@@H](N)CCCCN)[C@@H](C)CC)C(=O)NCC(=O)N[C@@H](C)C(=O)N[C@H](C(=O)N[C@@H](CC(C)C)C(=O)N[C@@H](CCCCN)C(=O)N[C@H](C(=O)N[C@@H](CC(C)C)C(=O)N[C@H](C(=O)N[C@H](C(=O)NCC(=O)N[C@@H](CC(C)C)C(=O)N1CCC[C@H]1C(=O)N[C@@H](C)C(=O)N[C@@H](CC(C)C)C(=O)N[C@@H](CCCCN)C(=O)N[C@@H](CC(C)C)C(=O)N[C@H](C(=O)N[C@@H](CCCCN)C(=O)O)[C@@H](C)O)[C@@H](C)O)[C@@H](C)O)C(C)C)C(C)C [CEMA] | 14,000-20,000 Units of TNF per ml | 19062 | 98.5 | 75 | 4451 | no apparent decrease | 89 | 11-16 U/ml | up to 2 hours |  |  |  |  |  |  | 
2 | polymyxin B |  |  |  |  |  |  |  |  |  | 0.5 | 0.12 | 0.5 | 0.25 | 0.5 | 0.06 | 1
